Results taken from the CheMixHub ionic liquid set.

Experiment: xn = mol fraction of the nth substance listed

CCCCCC[NH2+]CCN.O=S(=O)([N-]S(=O)(=O)C(F)(F)F)C(F)(F)F + O
101.3 kPa
Details | electrical conductivity [S/m] | viscosity [mPa·s]
308.15 K, x1 = 0.5022 | 0.182 | 77.8
318.15 K, x1 = 0.5763 | 0.188 | 50.3
323.15 K, x1 = 0.401 | 0.589 | 21.2
328.15 K, x1 = 0.5022 | 0.42 | 29.1
328.15 K, x1 = 0.6828 | 0.233 | 45.5
338.15 K, x1 = 0.5022 | 0.6 | 19.7
343.15 K, x1 = 0.6828 | 0.428 | 24.2
343.15 K, x1 = 0.8154 | 0.321 | 25.9
348.15 K, x1 = 0.401 | 1.29 | 9
348.15 K, x1 = 0.5763 | 0.625 | 15
353.15 K, x1 = 0.5763 | 0.729 | 12.8

CCCC[n+]1ccn(C)c1.CS(=O)(=O)[O-] + O
101 kPa
Details | electrical conductivity [S/m] | viscosity [mPa·s]
298.15 K, x2 = 0.6542 | – | 31.9
298.15 K, x2 = 0.7014 | – | 25.2
298.15 K, x2 = 0.7494 | – | 19.09
298.15 K, x2 = 0.796 | 1.23 | –
298.15 K, x2 = 0.951 | 4.06 | –
298.15 K, x2 = 0.975 | – | 1.643
299.15 K, x1 = 0.008 | 2.11 | –
299.15 K, x2 = 0.892 | 2.96 | –
299.15 K, x2 = 0.951 | 4.12 | –
300.15 K, x1 = 0.004 | 1.24 | –
301.15 K, x2 = 0.861 | 2.53 | –
302.15 K, x2 = 0.861 | 2.61 | –
305.15 K, x1 = 0.004 | 1.37 | –
305.15 K, x2 = 0.861 | 2.84 | –
306.15 K, x1 = 0.004 | 1.4 | –
307.15 K, x1 = 0.008 | 2.51 | –
308.15 K, x1 = 0.019 | 4.06 | –
308.15 K, x2 = 0.861 | 3.08 | –
308.15 K, x2 = 0.968 | 4.94 | –
309.15 K, x2 = 0.968 | 5.03 | –
310.15 K, x1 = 0.019 | 4.22 | –
310.15 K, x2 = 0.861 | 3.25 | –
310.15 K, x2 = 0.892 | 4.03 | –
310.15 K, x2 = 0.968 | 5.11 | –
311.15 K, x2 = 0.861 | 3.35 | –
313.15 K, x2 = 0.892 | 4.42 | –
313.15 K, x2 = 0.9004 | – | 3.71
315.15 K, x2 = 0.968 | 5.63 | –
316.15 K, x2 = 0.951 | 6.44 | –
317.15 K, x1 = 0.004 | 1.7 | –
317.15 K, x2 = 0.951 | 6.52 | –
317.15 K, x2 = 0.968 | 5.83 | –
318.15 K, x2 = 0.929 | 5.89 | –
319.15 K, x2 = 0.861 | 4.14 | –
319.15 K, x2 = 0.968 | 6.08 | –
320.15 K, x1 = 0.004 | 1.79 | –
320.15 K, x1 = 0.019 | 5.15 | –
320.15 K, x2 = 0.892 | 5.23 | –
320.15 K, x2 = 0.968 | 6.17 | –
321.15 K, x2 = 0.968 | 6.3 | –
322.15 K, x2 = 0.892 | 5.48 | –
322.15 K, x2 = 0.929 | 6.42 | –
323.15 K, x2 = 0.8015 | – | 6.16
323.15 K, x2 = 0.9503 | – | 1.503
323.15 K, x2 = 0.951 | 7.08 | –
324.15 K, x1 = 0.004 | 1.91 | –
324.15 K, x1 = 0.008 | 3.39 | –
324.15 K, x1 = 0.019 | 5.48 | –
324.15 K, x2 = 0.892 | 5.72 | –
325.15 K, x1 = 0.008 | 3.45 | –
325.15 K, x1 = 0.019 | 5.57 | –
325.15 K, x2 = 0.929 | 6.93 | –
326.15 K, x1 = 0.004 | 1.98 | –
326.15 K, x2 = 0.929 | 6.92 | –
326.15 K, x2 = 0.968 | 6.88 | –
327.15 K, x2 = 0.861 | 5.02 | –
327.15 K, x2 = 0.929 | 7.05 | –
328.15 K, x1 = 0.019 | 5.74 | –
328.15 K, x2 = 0.951 | 7.6 | –
329.15 K, x2 = 0.968 | 7.25 | –
331.15 K, x1 = 0.019 | 6.08 | –
331.15 K, x2 = 0.861 | 5.49 | –
332.15 K, x2 = 0.929 | 7.74 | –
332.15 K, x2 = 0.951 | 8.16 | –
333.15 K, x2 = 0.7014 | – | 8.05
333.15 K, x2 = 0.8015 | – | 4.67
333.15 K, x2 = 0.9004 | – | 2.3
333.15 K, x2 = 0.9503 | – | 1.24
333.15 K, x2 = 0.968 | 7.66 | –
334.15 K, x2 = 0.968 | 7.78 | –
335.15 K, x1 = 0.004 | 2.24 | –
336.15 K, x1 = 0.004 | 2.27 | –
336.15 K, x2 = 0.951 | 8.7 | –
337.15 K, x2 = 0.861 | 6.31 | –
337.15 K, x2 = 0.929 | 8.44 | –
338.15 K, x1 = 0.019 | 6.52 | –
338.15 K, x2 = 0.861 | 6.33 | –
338.15 K, x2 = 0.951 | 8.96 | –
339.15 K, x2 = 0.968 | 8.41 | –
341.15 K, x2 = 0.892 | 7.89 | –
342.15 K, x1 = 0.004 | 2.44 | –
342.15 K, x2 = 0.861 | 6.89 | –
342.15 K, x2 = 0.892 | 7.96 | –
343.15 K, x1 = 0.004 | 2.46 | –
343.15 K, x2 = 0.6542 | – | 7.44
343.15 K, x2 = 0.8521 | – | 2.67
343.15 K, x2 = 0.892 | 8.05 | –
344.15 K, x2 = 0.929 | 9.45 | –
345.15 K, x1 = 0.004 | 2.53 | –
345.15 K, x2 = 0.951 | 10 | –
345.15 K, x2 = 0.968 | 8.98 | –
346.15 K, x1 = 0.008 | 4.56 | –
346.15 K, x2 = 0.951 | 10.1 | –
347.15 K, x2 = 0.861 | 7.63 | –
347.15 K, x2 = 0.892 | 8.62 | –
348.15 K, x1 = 0.004 | 2.61 | –
348.15 K, x2 = 0.892 | 8.76 | –
349.15 K, x2 = 0.861 | 7.79 | –
349.15 K, x2 = 0.951 | 10.6 | –
350.15 K, x1 = 0.019 | 7.75 | –
352.15 K, x1 = 0.019 | 7.98 | –
352.15 K, x2 = 0.951 | 10.9 | –
353.15 K, x1 = 0.004 | 2.76 | –
353.15 K, x2 = 0.861 | 8.33 | –
353.15 K, x2 = 0.951 | 11.1 | –
354.15 K, x2 = 0.861 | 8.44 | –
355.15 K, x1 = 0.004 | 2.83 | –
355.15 K, x2 = 0.968 | 10.3 | –
356.15 K, x1 = 0.004 | 2.82 | –
357.15 K, x1 = 0.004 | 2.86 | –
357.15 K, x2 = 0.929 | 11.3 | –
357.15 K, x2 = 0.951 | 11.3 | –
358.15 K, x2 = 0.892 | 10.1 | –
